Data published in publication PMC8813873, “The HGR motif is the antiangiogenic determinant of vasoinhibin: implications for a therapeutic orally active oligopeptide” (Angiogenesis, 2021).
Like-named read-outs stand apart in the source and are kept apart here. Square brackets hold non-standard residues; d marks the D form. Ends that are not written are not given here. Peptide text beside a SMILES is read from it.

Tests used:
[1] = test system: HUVEC; details: for Span: span of fitted dose-response curve, VEGF + bFGF-induced HUVEC proliferation relative to lowest and highest dose of CRIVi45-51
Experimental: HUVEC were seeded at 14,000 cells cm^−2 in a 96-well plate and, after 24 h, starved with 0.5% FBS for 12 h. The medium was refreshed with 20% FBS-F12K and incubated with 100 μg mL^−1 heparin together with 25 ng mL^−1 VEGF and 20 ng mL^−1 bFGF for 24 h in combination with a single dose (100 nM) or different concentrations of PRL, vasoinhibin, or synthetic oligopeptides. DNA synthesis was quantified by the DNA incorporation of the thymidine analog 5-ethynyl-2’-deoxyuridine (EdU, Sigma) labeled by the click reaction with fluorescent Azide Fluor 545 (Sigma-Aldrich) as reported.
Endothelial cell proliferation. BUVEC-E6E7 cells seeded at 14,000 cells cm^-2 in a 96-well plate were starved with 0.1% FBS for 24 h and treated or not with VEGF (50 ng mL^-1) in starvation medium with or without different concentrations of five peptides synthesized along the 45 to 58 residue sequence of human PRL or with recombinant vasoinhibin of 123 amino acids (positive control). HUVEC cells were seeded at 14,000 cells cm^-2 in a 96-well plate for 24 h and starved with 0.5% FBS for 12 h. Medium was then replaced by 20% FBS-F12K and 100 μg mL^-1 heparin containing or not VEGF (25 ng mL^-1), bFGF (20 ng mL^-1), IL-1b (10 ng mL^-1), or BK (10 μM) or a combination of 25 ng mL^-1 of VEGF and 20 ng mL^-1 of bFGF for 24 h in the presence or absence of a single dose (100 nM) or different doses of PRL (negative control), recombinant vasoinhibin, Vi45-51, synthetic peptides having the same residue composition as the 45-51 segment but in scrambled order (negative control), Vi45-51 subjected to alanine scanning mutagenesis, a tripeptide comprising residues 46 to 48 of vasoinhibin (Vi46-48), a Vi45-51 where G47 was deleted (des-G^47), a conserved version of the Vi45-51 (cVi45-51) and the QGR tripeptide, heptapeptides comprising residues 39 to 45 of growth hormone (GH39-45) or placental lactogen (PL39-45), tripeptides EQK and QKY, the dipeptide QK (Table S2), alanine mutants of the vasoinhibin with 123 residues (Vi-H46A, Vi-R48A, Vi-H46A/R48A), alanine mutants of PRL (PRL-E161A, PRL-E162A, PRL-E161A/E162A), CRIVi45-51, antiangiogenic proteins (endostatin, angiostatin), antiangiogenic oligopeptides (anginex, cilengitide), or antiangiogenic tyrosine-kinase inhibitors (pazopanib, sunitinib, sorafenib). DNA synthesis was quantified by the DNA incorporation of the thymidine analogue 5-ethynyl-2’-deoxyuridine (EdU, Sigma) added at the time of treatments and labelled by the click reaction with fluorescent Azide Fluor 545 (Sigma-Aldrich) as reported. Images were obtained in a fluorescent inverted microscope (Olympus IX51, Japan) and quantified using the CellProfiler software. The number of EdU-positive cells over total DNA (Hoechst)-stained cells was expressed as percentage proliferation. B16-F10 cells and HUVEC were seeded at 12,600 cells cm^-2 and 7,400 cells cm^-2, respectively, in a 24-well plate and incubated for different times in complete medium in the absence or presence of 100 nM CRIVi45-51 added every 24 h. Cells were trypsinized and counted.

[2] = Heat treatment, residual antiproliferative activity; type: physicochemical; details: 2 μM solution, 97 °C, 15 min; read-out inhibition of VEGF + bFGF-induced HUVEC proliferation at 10 nM, n = 9
[3] = test system: B16-F10 melanoma tumors; experiment: B16-F10 melanoma tumor model; type: in vivo; details: C57BL6 mice
Experimental: The mouse model of primary tumor development based on the use of B16-F10 melanoma cells was used as previously reported. Briefly, anesthetized female C57BL6 mice (8–12 weeks-old) were inoculated into their right flank with 10^5 B16-F10 cells. Five days after tumor cell inoculation, mice were treated daily with vehicle (NS) or CRIVi45–51 injected into the lateral tail vein or via intragastric gavage for the 8 d following tumor cell injection. Animals were then euthanized by cervical dislocation and the tumors weighted and processed to evaluate blood vessels by immunofluorescence or RT-qPCR.
Tumor model. Female C57BL6 mice (8-12 weeks-old) under 2.5% isoflurane anesthesia (SomnoSuite system, Kent Scientific, Torrington, CT) were inoculated into their right flank with 10^5 B16-F10 cells in 50 μL PBS. Tumor length and width were measured daily, and volume was estimated by the formula: Volume = (length x width^2) x 0.5. Five days after tumor cell inoculation, mice were injected daily into the lateral tail vein with vehicle (normal saline) or 0.1 or 1.0 mg kg^-1 CRIVi45-51, and tumor volumes were assessed daily for the following 8 d. In other experiments, 1.0 mg kg^-1 CRIVi45-51 or vehicle was delivered daily intragastrically through a 20G x 1.5’’ curved metal gavage canula (Cadence Science, Staunton, VA) for the 8 d following tumor cell injection. Animals were then euthanized by cervical dislocation and the tumors processed or frozen to evaluate blood vessels by immunofluorescence or RT-qPCR, respectively. […] Tumor sections were cover-slipped with Vectashield H-1000 (Vector Laboratories) and digitalized at 20X and 40X magnification under a fluorescence microscope (Olympus BX60). The number of vessels per tumor area measured vascular density. CD-31 and VE-Cad mRNA levels were quantified by RT-qPCR following the method already described in the retinal angiogenesis assay section.

[4] = test system: B16-F10 cells; experiment: B16-F10 cell growth in vitro (cell counting); type: cell-based, mouse; details: 100 nM added every 24 h, cell density over time, n = 9
Experimental: (§1) Endothelial cell proliferation. BUVEC-E6E7 cells seeded at 14,000 cells cm^-2 in a 96-well plate were starved with 0.1% FBS for 24 h and treated or not with VEGF (50 ng mL^-1) in starvation medium with or without different concentrations of five peptides synthesized along the 45 to 58 residue sequence of human PRL or with recombinant vasoinhibin of 123 amino acids (positive control). HUVEC cells were seeded at 14,000 cells cm^-2 in a 96-well plate for 24 h and starved with 0.5% FBS for 12 h. […] DNA synthesis was quantified by the DNA incorporation of the thymidine analogue 5-ethynyl-2’-deoxyuridine (EdU, Sigma) added at the time of treatments and labelled by the click reaction with fluorescent Azide Fluor 545 (Sigma-Aldrich) as reported. Images were obtained in a fluorescent inverted microscope (Olympus IX51, Japan) and quantified using the CellProfiler software. The number of EdU-positive cells over total DNA (Hoechst)-stained cells was expressed as percentage proliferation. […] Cells were trypsinized and counted.

[5] = test system: HUVEC; experiment: HUVEC cell density over time (cell counting); type: cell-based, human; details: 100 nM added every 24 h, complete medium, n = 9
Experimental: as §1

[6] = biological target: pepsin (Sus scrofa, UniProt P00791); experiment: Pepsin digestion, residual antiproliferative activity; details: 4 μM, 1:20 protease to substrate molar ratio, 40 mM HCl, 37 °C, 5 h; read-out inhibition of VEGF + bFGF-induced HUVEC proliferation at 10 nM, n = 9
pepsin, sequence (P00791 60-385): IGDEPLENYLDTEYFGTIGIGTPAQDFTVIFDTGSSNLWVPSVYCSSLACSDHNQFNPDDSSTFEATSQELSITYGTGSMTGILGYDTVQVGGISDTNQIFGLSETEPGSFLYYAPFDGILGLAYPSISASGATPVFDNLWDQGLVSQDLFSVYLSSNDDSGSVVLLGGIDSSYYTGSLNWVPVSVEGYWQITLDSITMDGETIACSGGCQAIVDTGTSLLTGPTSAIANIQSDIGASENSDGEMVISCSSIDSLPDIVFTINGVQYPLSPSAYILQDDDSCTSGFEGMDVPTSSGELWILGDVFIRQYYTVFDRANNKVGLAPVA

[7] = VEGF 25 ng/mL + bFGF 20 ng/mL-induced HUVEC proliferation, 24 h, EdU incorporation, non-linear best fit, n = 9

## CCN(CC)CCNC(=O)c1c(C)[nH]c(/C=C2\C(=O)Nc3ccc(F)cc32)c1C [Sunitinib, reference compound]
[1]; non-linear best fit, n = 9
  Span: 93.64%

## Cc1ccc(Nc2nccc(N(C)c3ccc4c(C)n(C)nc4c3)n2)cc1S(N)(=O)=O [Pazopanib, reference compound]
[1]; non-linear best fit, n = 9
  Span: 83.73%

## Ac-THGRGFI-NH2 [Vi45–51, vasoinhibin-(45-51)-peptide]
[1]; 24 h
  IC50: ~0.15 nM

## Endostatin
[1]; [7]
  IC50: 31.2 nM
[1]; non-linear best fit, n = 9
  Span: 49.98%

## CC[C@@H](C)[C@H]1NC(=O)[C@@H]([C@H](C)O)NC(=O)[C@@H](Cc2c[nH]cn2)NC(=O)CNC(=O)[C@@H](CCCNC(=N)N)NC(=O)CNC(=O)[C@@H](Cc2ccccc2)NC1=O [CRIVi45–51, cyclic-retro-inverse-vasoinhibin-(45–51)-peptide] (cyclo([dI][dF]G[dR]G[dH][dT]))
[1]; ratio of IC50 values, VEGF + bFGF-induced HUVEC proliferation
  fold lower IC50 than other antiangiogenic proteins (endostatin and angiostatin) and peptides (anginex and cilengitide): 2.7- to 214 fold
[1]; non-linear best fit, n = 9
  Span: 86.86%
[2]
  activity after heat inactivation: retained full activity
[3]; B16-F10, 1.0 mg/kg daily intragastric gavage, 8 d, n = 9
  tumor growth, oral administration: decreased tumor growth with similar efficacy to intravenous delivery
[3]; B16-F10, daily i.v. 0.1 or 1.0 mg/kg for 8 d from day 5, n = 9
  tumor growth, intravenous: reduced tumor growth in a dose-related manner
[3]; B16-F10 tumors, daily i.v., n = 9
  tumor vascular density and expression of CD31: reduce
[4]
  growth of melanoma cells in vitro: did not inhibit
[5]
  HUVEC cell density over time: reduces proliferation
[6]
  resistance to pepsin degradation: resistant

## ANIKLSVQMKLFKRHLKWKIIVKLNDGRELSLD [Anginex, reference compound]
[1]; non-linear best fit, n = 9
  Span: 73.13%

## CNC(=O)c1cc(Oc2ccc(NC(=O)Nc3ccc(Cl)c(C(F)(F)F)c3)cc2)ccn1 [Sorafenib, reference compound]
[1]; non-linear best fit, n = 9
  Span: 106.00%

## Angiostatin
[1]; [7]
  IC50: 0.388 nM
[1]; non-linear best fit, n = 9
  Span: 68.47%

B1: PRL: Recombinant human prolactin (protein, UniProt P01236 29-227, looked up)
Prolactin: LPICPGGAARCQVTLRDLFDRAVVLSHYIHNLSSEMFSEFDKRYTHGRGFITKAINSCHTSSLATPEDKEQAQQMNQKDFLSLIVSILRSWNEPLYHLVTEVRGMQEAPEAILSKAVEIEEQTKRLLEGMELIVSQVHPETKENEIYPVWSGLPSLQMADEESRLSAYYNLLHCLRRDSHKIDNYLKLLKCRIIHNNNC
[1]; VEGF 25 ng/mL + bFGF 20 ng/mL, 24 h, EdU, n = 9
  dose-response inhibition of VEGF + bFGF-induced HUVEC proliferation (result in words): not antiangiogenic
